Entries after “also recorded” stand apart in the source; their conditions may differ. Like-named read-outs stand apart in the source and are kept apart here. One block for each molecule: values may come before it.
Tests used:
[1] = Method: The samples were frozen at −30° C. and then transferred to the respective temperature for long-term storage (either −15 or −30° C.). After defined storage time, samples were analyzed and preservation of the colloidal stability was analyzed by measuring the particle size using PCS. These experiments were performed at a total RNA concentration of 0.05 mg/mL.
Method: To investigate the minimum content of representative cryoprotectants as sucrose, trehalose, glucose and mixtures including dextran required for long-term storage at −20° C., RNA lipoplexes were frozen at a fixed cryoprotectant content in combination with varying NaCl concentrations. For monomeric or dimeric molecular cryoprotectants as glucose, sucrose, and trehalose a concentration of 22% (w/v) was adjusted. These formulations were frozen and stored at −15 to −40° C. and long-term stability was investigated by measuring the particle size using PCS after defined storage time.
The samples were frozen and stored at −20° C. After defined storage time, samples were analyzed and preservation of the colloidal stability was analyzed by measuring the particle size.

[2] = Freezing of RNA lipoplexes with cryoprotectants and NaCl (particle size); format: physicochemical; settings: for preservation of particle size after a single freezing step: 20% (w/v) cryoprotectant, 0 to 60 mM NaCl, −30° C.
Source text: Methods: Different compounds representative for monosaccharides (glucose and sorbitol), disaccharides (sucrose and trehalose), amino acids (arginine, prolin), triols (glycerin) as well as cryoprotectant systems containing mixtures of different sugars (mannitol and sucrose) were investigated in order to identify suited cryoprotectants (FIGS. 25 and 26). Therefore RNA lipoplexes were frozen in the presence of increasing concentration of these compounds. In order to identify minimum content of cryoprotectant at a certain concentration of NaCl, RNA lipoplexes were frozen in the presence of increasing amounts of sucrose or trehalose as representative cryoprotectants (Table 7). The samples were initially frozen a single time in order to determine the concentration range of cryoprotectant to be investigated in detail. In a third experiment, the efficacy of stabilization of the particle size was challenged by freezing of the RNA lipoplexes up to 10 times in the presence of the cryoprotectant trehalose (Table 8).

[3] = RNA integrity in RNA lipoplexes at 40° C. (capillary electrophoresis); settings: 21 days, no cryoprotectant
Method: RNA lipoplexes are initially incubated under stress conditions (40° C.) in the absence of cryoprotectant. RNA integrity was analyzed by capillary electrophoresis over 21 days. In order to investigate the optimum pH range in the presence of an exemplary cryoprotectant, RNA lipoplexes were incubated in the presence of HEPES and sucrose at 40° C. and RNA integrity was analyzed for 21 days.
RNA integrity was analyzed as a key physicochemical parameter over 21 days.

[4] = remark: listed apart in the source
Method: The mean value calculated from the first DOPE integrity values of the samples directly after manufacturing (0 month) was set to 1 as the initial integrity value of the respective study arm. The following values were normalized to this starting value.
Method: Liposomes were prepared as described above. To acidify the liposomes, different volumes of a 1 M stock solution of acetic acid was added to the liposomes with a total lipid concentration of 0.9 mM. After that, liposomes were stored at different acetic acid concentrations in a range from 0 mM to 3 mM up to a maximum of 6 months at different temperatures (4° C., 25° C. and 40° C.).

[5] = RNA integrity in RNA lipoplexes, accelerated storage at 25° C.; settings: for stabilization of the RNA integrity by buffer system: 5 mM buffer, pH 6.0-7.0, liposomes with 2 mM acetic acid; for stability of the RNA in RNA lipoplexes by buffer system: 10% sucrose, 6.45 mM NaCl, liposomes with 5 mM acetic acid
Method: RNA lipoplexes are incubated under accelerated conditions (25° C.) in the presence of an exemplarily cryoprotectant. RNA integrity was analyzed by capillary electrophoresis over 60 days. Additionally, RNA lipoplexes are incubated under at the anticipated storage conditions (−15° C.) in the presence of an exemplarily cryoprotectant for up to two years. RNA integrity was analyzed by capillary electrophoresis.
The respective RNA lipoplexes were investigated under accelerated conditions (25° C.) and in the frozen state (−15° C.).
RNA lipoplexes were formed with liposomes containing 2 mM of acetic acid. The respective RNA lipoplexes were investigated under accelerated conditions (25° C.) and in the frozen state (−15° C.).
Method: All RNA lipoplexes were automatically prepared in a single batch and the different concentrations of HEPES were adjusted by the addition of a cryoprotectant solution containing different amounts of HEPES. Particle sizes and polydispersity of RNA lipolexes were analyzed by photon correlation spectroscopy (PCS) measurements. Additionally, the RNA integrity was analyzed by capillary electrophoresis and the pH was measured.
In the following study, the concentration of HEPES which is required for stabilization of the pH of the RNA lipoplexes was investigated. RNA lipoplexes were formed with liposomes containing 5 mM of acetic acid and different concentrations of HEPES were adjusted by using different cryoprotectant solutions and the respective RNA lipoplexes were investigated under accelerated conditions (25° C.). The pH range from pH 6.2 to 7.2 was tested.
In the following study, the long-term stability of RNA lipoplexes in the frozen state was investigated with the combination of the reduced concentration of NaCl and Sucrose in the presence of either HEPES or Histidine as a buffering agent at a pH of 6.5.
To analyze the RNA integrity, the RNA had to be isolated from the RNA lipoplexes. Cryoprotected RNA lipoplexes were mixed with RNeasy kit (Qiagen) RLT buffer in a ratio of 1 to 3.5. Then ethanol was added in a ratio of 1 part ethanol to 1.8 parts LPX-RLT.
The further RNA isolation was done using the RNeasy Mini Kit protocol and the RNeasy Mini Kit from Qiagen.
The integrity of the RNA was analyzed using a 48 capillary Fragment Analyzer Automated System by Advanced Analytical (AATI) according to the manufacturers instructions. Results were analyzed via PROSize 2.0 version 2.0.051 data analysis software.
Method: BM1 RNA lipoplexes were prepared as described above. All other RNA lipoplexes were prepared as described above with liposomes containing 5 mM acetic acid.
BM1 RNA lipoplexes were cryoprotected and RNA concentration adjusted as described above. All other RNA lipoplexes were cryoprotected by adding cryoprotection buffer containing the respective buffer substance in a ratio of 1 to 6.7. Final pH values were titrated by adding HCl or NaOH to the cryoprotected RNA lipoplexes, ending up to the following compositions:
Titrated, cryoprotected RNA lipoplexes were filled into 10R glass vials and stored at ambient temperature (25° C.) for at least 61 days. At defined points in time, two vials per group were collected and the RNA integrity was determined.

[6] = DOPE solubility in ethanol (HPLC); format: physicochemical
Method: DOPE and DOPE/DOTMA solubility in ethanol was investigated by preparing 300 mM DOPE or 330 mM DOPE/DOTMA (66:33) solutions in ethanol. The lipids were dissolved by incubating the lipid solutions at 37° C. for 20 minutes. The DOPE solutions were centrifuged at 17000 G for 1h and the DOPE concentration was measured in the supernatant by HPLC. The DOTMA/DOPE solutions were filtered through a 0.22 μm PES syringe filter and the lipid concentration was measured in the filtrate by HPLC. Lipid concentration in the different liposome formulations were measured by HPLC (Agilent technologies. Santa Clara. USA) using a Sunfire C18 2.5 μm 4.6×75 mm column (Waters. Massachusetts. USA) and a wave length of 205 nm. Mobile phase A was a mixture of 70% methanol/30% isopropanol/0.1% TFA, mobile phase B was a mixture of 55% methanol/15% isopropanol/30% water/0.1% TFA. Liposomes samples were or not diluted with water to 3 mM total lipid concentration. It has been tested if DOPE-containing solutions of higher concentration can be prepared (in the supersaturated state) and used for ethanol injection for liposome manufacturing (next section).

[7] = Storage of drug product at −15° C., particle size and AF4; format: physicochemical; settings: derived from AF4 data, worst-case conditions, 12 months
Method: The AF4 method is a fractionation technique for characterization and separation of nanoparticles, polymers and proteins based on their diffusion coefficient. The separation is achieved using hydrodynamic forces applied in the flat separation channel. Within a channel, a parabolic flow profile is created due to the laminar flow of mobile phase against which a perpendicular force field is applied. The separation was performed by an elution inject program with an inject flow of 0.2 mL/min, detector flow of 0.5 mL/min and crossflow of 1.5 mL/min. The eluted particles were detected by multi-angle light scattering (MALS) detector (HELLEOS II, Wyatt Technology Corp.Santa Barbara, CA, USA). The LS traces were recorded by ASTRA Software Version 7.1.3.25 (Wyatt Technology Europe, Dernbach Germany).
Method: BM1 RNA lipoplexes were prepared as described above.
All other RNA lipoplexes were cryoprotected by adding cryoprotection buffers with no EDTA disodium salt (groups 0 mM and 0.4 mM EDTA disodium salt) or with EDTA disodium salt in a ratio of 1 to 6.7 to generate different EDTA disodium salt concentrations in the final PD composition.
Method: RNA lipoplexes were prepared with increasing amounts of NaCl for condensation of the RNA and liposomes without acetic acid. […]

[8] = 70 mM NaCl, up to 10 times freezing
[9] = 90 mM NaCl, up to 10 times freezing
[10] = frozen with increasing amounts of cryoprotectant, Z-average, polydispersity, subvisible particles

- trehalose sufficient for stabilization of RNA lipoplex particle characteristics ([2]; 50 mM NaCl, even after 10 times freezing): ≥ 12.5%
- trehalose required for exact preservation of the particle size [2, 8]: ≥ 22.5%
- trehalose required for minimum stabilization [2, 8]: ≥ 12.5%
- trehalose required for minimum stabilization [2, 9]: ≥ 15.0%
- preservation of particle size after a single freezing step [2]: acceptable preservation of particle size
SMILES: OC[C@H]1O[C@H](O[C@H]2O[C@H](CO)[C@@H](O)[C@H](O)[C@H]2O)[C@H](O)[C@@H](O)[C@@H]1O [trehalose]
- stabilization efficacy on long-term storage [1]: No difference in the stabilization efficacy
- exact preservation of the particle size [2, 9]: could not be achieved even with the highest investigated concentration of 27.5%

- acetic acid concentration above which stabilization efficacy plateaus ([4]; liposomes 0.9 mM total lipid): approx. 1 mM
SMILES: CC(=O)O [acetic acid]
- stability of DOPE in liposomes (DOPE ester hydrolysis) ([4]; 0-3 mM acetic acid, 4° C., 25° C., 40° C., up to 6 months): Stability increases for all measured temperatures with increasing acetic acid concentration

- stabilization of the RNA integrity by buffer system [5]: slightly reduced stability
- stability of the RNA in RNA lipoplexes by buffer system [5]: lower stability
SMILES: N[C@@H](Cc1c[nH]cn1)C(=O)O [Histidine]

- stabilization of RNA lipoplexes during freezing [2, 10]: clearly destabilizes the RNA lipoplexes
SMILES: N=C(N)NCCC[C@H](N)C(=O)O [arginine]

- preservation of particle size after a single freezing step [2]: acceptable preservation of particle size
- sucrose concentration to ensure long-term stability of the drug product [7]: at least 12 % (w/v)
SMILES: OC[C@H]1O[C@@](CO)(O[C@H]2O[C@H](CO)[C@@H](O)[C@H](O)[C@H]2O)[C@@H](O)[C@@H]1O [sucrose]
- stabilization efficacy on long-term storage [1]: No difference in the stabilization efficacy

- stability of the RNA in RNA lipoplexes by buffer system [5]: best stability
SMILES: O=S(=O)(O)CCN1CCN(CCO)CC1 [HEPES, 2-[4-(2-hydroxyethyl)piperazin-1-yl]ethanesulfonic acid]
- stabilization of the RNA integrity by buffer system [5]: comparable stabilization of the RNA integrity
- RNA stability in the drug product by buffer ([5]; 61 days, pH 6.4 to 7.0, vs Histidine, MES, Na-Acetate): significantly enhanced RNA stability in the drug product

The next lines start with the molecule.

SMILES: O=C(O)[C@@H]1CCCN1 [proline]
- stabilization of RNA lipoplexes during freezing [2]: can be used as cryoprotectants for RNA lipoplexes

SMILES: OCC(O)CO [Glycerin]
- stabilization of RNA lipoplexes during freezing [2, 10]: can be used as cryoprotectants for RNA lipoplexes

SMILES: O=P(O)(O)O [sodium phosphate]
- stabilization of the RNA (RNA integrity) by buffering system [3]: comparable results

SMILES: OC[C@@H](O)[C@@H](O)[C@H](O)[C@@H](O)CO [sorbitol]
- stabilization of RNA lipoplexes during freezing [2, 10]: can be used as cryoprotectants for RNA lipoplexes; also recorded: stabilization efficacy of sorbitol is lower

SMILES: O=C([O-])[O-].[Na+].[Na+] [carbonate, sodium carbonate]
- stabilization of the RNA (RNA integrity) by buffering system [3]: did not result in comparable stabilization of the RNA

SMILES: CCCCCCCC/C=C\CCCCCCCC(=O)OC[C@H](COP(=O)(O)OCCN)OC(=O)CCCCCCC/C=C\CCCCCCCC [DOPE, 1,2-di-(9Z-octadecenoyl)-sn-glycero-3-phosphoethanolamine]
- DOPE solubility in ethanol [6]: 59 mM

— patent US20240269321A1, “PREPARATION AND STORAGE OF LIPOSOMAL RNA FORMULATIONS SUITABLE FOR THERAPY” (BioNTech SE, priority 2020, published 2024)
